Structures can show the parent of a compound that is named as a salt.
Tests used:
[1] = Electrical conductivity of clay dispersions and drug solutions; type: physicochemical; conditions: for Conductivity, Mean / Conductivity, Trial 1 / Conductivity, Trial 2 / Conductivity, Trial 3 / pH, Mean / pH, Trial 1 / pH, Trial 2 / pH, Trial 3: dispersions
[2] = pH 3
Method: (§1) Into 10 mL of drug solution (containing 25 mg of tramadol HCl), 50 mg of talc was added and vortexed for 5 seconds followed by centrifugation @1500 rpm for 5 minutes. The solution was filtered through a 0.2 μm syringe filter; 0.5 ml of the supernatant solution was diluted with 10 ml of solvent, and then analyzed for drug concentration by UV spectroscopy @271 nm.
as §1, with “zinc acetate” for “talc”
The solution was filtered through a 0.2 μm syringe filter; 0.5 ml of the supernatant solution was diluted with 10 ml of solvent, and then analyzed for drug concentration by UV spectroscopy @271 nm.

SMILES | Conductivity, Mean [1] | Conductivity, Trial 1 [1] | Conductivity, Trial 2 [1] | Conductivity, Trial 3 [1] | pH, Mean [1] | pH, Trial 1 [1] | pH, Trial 2 [1] | pH, Trial 3 [1] | % Bound [2] | Cond. ([1]; drug solution in 0.1N HCl, 100 μg/mL) | Cond. ([1]; drug solution in 0.1N HCl, 200 μg/mL) | Cond. ([1]; drug solution in 0.1N HCl, 250 μg/mL) | Cond. ([1]; drug solution in 0.1N HCl, 500 μg/mL) | Cond. ([1]; drug solution in 0.1N HCl, 1000 μg/mL) | Cond. ([1]; drug solution in ultrapure deionized water, 100 μg/mL) | Cond. ([1]; drug solution in ultrapure deionized water, 200 μg/mL) | Cond. ([1]; drug solution in ultrapure deionized water, 250 μg/mL) | Cond. ([1]; drug solution in ultrapure deionized water, 500 μg/mL) | Cond. ([1]; drug solution in ultrapure deionized water, 1000 μg/mL)
O=C([O-])[O-].[Na+].[Na+] [Na2CO3] | −247.7 mV | −247.4 mV | −248.3 mV | −247.5 mV | 11.40 | 11.40 | 11.42 | 11.40 |  |  |  |  |  |  |  |  |  |  | 
[Cl-].[Na+] [NaCl] | 40.3 mV | 34.7 mV | 33.6 mV | 52.6 mV | 6.38 | 6.48 | 6.50 | 6.16 |  |  |  |  |  |  |  |  |  |  | 
CC(=O)[O-].CC(=O)[O-].[Zn+2] [Zinc Acetate] |  |  |  |  |  |  |  |  | 2.9% |  |  |  |  |  |  |  |  |  | 
CN(C)CCOC(c1ccccc1)c1ccccc1 [diphenhydramine HCl] |  |  |  |  |  |  |  |  |  | 334.4 mV | 333.5 mV | 333.2 mV | 333.7 mV | 332.1 mV | 28.2 mV | 24.5 mV | 21.3 mV | 21.3 mV | 31.3 mV

— patent US20180303824A1, “Compositions for deterring abuse of pharmaceutical products and alcohol” (priority 2015, published 2018)
